Data published in patent US12077503B2, “Substituted cyclic amides and their use as herbicides” (FMC CORPORATION, priority 2015, dated 2024).

Key:
Assay type in all cases: in vivo
[1] = tested on: ryegrass, Italian (Italian ryegrass, Lolium multiflorum); assay: Test A preemergence; conditions: Lolium multiflorum, pre-emergence, 240 h, preemergence, 0 to 100 scale where 0 is no effect and 100 is complete control, read-out: Ryegrass, Italian plant response rating; for pest or weed control at 125 g/ha: 125 g ai/ha, approx. 10 d; for pest or weed control at 500 g/ha: 500 g ai/ha
Summary of the method: (§1)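 Treatment is preemergence as a directed soil spray after planting, or postemergence at the one- to two-leaf stage, with test chemical in a non-phytotoxic solvent mixture plus surfactant. Plants stay in the greenhouse about 10 d before visual injury scoring on a 0 to 100 scale versus untreated controls.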

[2] = tested on: ragweed (common ragweed, Ambrosia elatior); assay: Test A preemergence; conditions: Ambrosia artemisiifolia, pre-emergence, 240 h, preemergence, 0 to 100 scale where 0 is no effect and 100 is complete control, read-out: Ragweed plant response rating; for pest or weed control at 125 g/ha: 125 g ai/ha, approx. 10 d; for pest or weed control at 500 g/ha: 500 g ai/ha
Summary of the method: as §1

[3] = tested on: barnyardgrass (Echinochloa crus-galli); assay: Test A preemergence; conditions: Echinochloa crus-galli, pre-emergence, 240 h, preemergence, 0 to 100 scale where 0 is no effect and 100 is complete control, read-out: Barnyardgrass plant response rating; for pest or weed control at 125 g/ha: 125 g ai/ha, approx. 10 d; for pest or weed control at 500 g/ha: 500 g ai/ha
Summary of the method: as §1

Kochia (Kochia scoparia) [4] = assay: Test A preemergence; conditions: Bassia scoparia, pre-emergence, 240 h, preemergence, 0 to 100 scale where 0 is no effect and 100 is complete control, read-out: Kochia plant response rating; for pest or weed control at 125 g/ha: 125 g ai/ha, approx. 10 d; for pest or weed control at 500 g/ha: 500 g ai/ha
Summary of the method: as §1

[5] = tested on: pigweed (Amaranthus retroflexus); assay: Test A preemergence; conditions: Amaranthus retroflexus, pre-emergence, 240 h, preemergence, 0 to 100 scale where 0 is no effect and 100 is complete control, read-out: Pigweed plant response rating; for pest or weed control at 125 g/ha: 125 g ai/ha, approx. 10 d; for pest or weed control at 500 g/ha: 500 g ai/ha
[6] = tested on: giant foxtail (Setaria faberii); assay: Test A preemergence; conditions: Setaria faberi, pre-emergence, 240 h, preemergence, 0 to 100 scale where 0 is no effect and 100 is complete control, read-out: Foxtail, Giant plant response rating; for pest or weed control at 125 g/ha: 125 g ai/ha, approx. 10 d; for pest or weed control at 500 g/ha: 500 g ai/ha
Summary of the method: as §1

[7] = tested on: wheat (Triticum aestivum); assay: Test A postemergence; conditions: Triticum aestivum, post-emergence, 240 h, postemergence; for plant injury at 125 g/ha: 125 g ai/ha, visual injury vs untreated controls after approx. 10 d, 0 = no effect, 100 = complete control, read-out: Wheat plant response rating (0 to 100 scale); for plant injury at 500 g/ha: 500 g ai/ha, 0 to 100 scale, 0 is no effect, 100 is complete control, read-out: Wheat plant response rating
Summary of the method: as §1

[8] = tested on: ryegrass, Italian (Italian ryegrass, Lolium multiflorum); assay: Test A postemergence; conditions: Lolium multiflorum, post-emergence, 240 h, postemergence; for pest or weed control at 125 g/ha: 125 g ai/ha, visual injury vs untreated controls after approx. 10 d, 0 = no effect, 100 = complete control, read-out: Ryegrass, Italian plant response rating (0 to 100 scale); for pest or weed control at 500 g/ha: 500 g ai/ha, 0 to 100 scale, 0 is no effect, 100 is complete control, read-out: Ryegrass, Italian plant response rating
Summary of the method: as §1

corn (Zea mays) = assay: Test A postemergence; conditions: Zea mays, post-emergence, 240 h, postemergence; for plant injury at 125 g/ha: 125 g ai/ha, visual injury vs untreated controls after approx. 10 d, 0 = no effect, 100 = complete control, read-out: Corn plant response rating (0 to 100 scale); for plant injury at 500 g/ha: 500 g ai/ha, 0 to 100 scale, 0 is no effect, 100 is complete control, read-out: Corn plant response rating
Summary of the method: as §1

[9] = tested on: blackgrass (Alopecurus myosuroides); assay: Test A postemergence; conditions: Alopecurus myosuroides, post-emergence, 240 h, postemergence; for pest or weed control at 125 g/ha: 125 g ai/ha, visual injury vs untreated controls after approx. 10 d, 0 = no effect, 100 = complete control, read-out: Blackgrass plant response rating (0 to 100 scale); for pest or weed control at 500 g/ha: 500 g ai/ha, 0 to 100 scale, 0 is no effect, 100 is complete control, read-out: Blackgrass plant response rating
Summary of the method: as §1

[10] = tested on: barnyardgrass (Echinochloa crus-galli); assay: Test A postemergence; conditions: Echinochloa crus-galli, post-emergence, 240 h, postemergence; for pest or weed control at 125 g/ha: 125 g ai/ha, visual injury vs untreated controls after approx. 10 d, 0 = no effect, 100 = complete control, read-out: Barnyardgrass plant response rating (0 to 100 scale); for pest or weed control at 500 g/ha: 500 g ai/ha, 0 to 100 scale, 0 is no effect, 100 is complete control, read-out: Barnyardgrass plant response rating
Summary of the method: as §1

Kochia (Kochia scoparia) [11] = assay: Test A postemergence; conditions: Bassia scoparia, post-emergence, 240 h, postemergence; for pest or weed control at 125 g/ha: 125 g ai/ha, visual injury vs untreated controls after approx. 10 d, 0 = no effect, 100 = complete control, read-out: Kochia plant response rating (0 to 100 scale); for pest or weed control at 500 g/ha: 500 g ai/ha, 0 to 100 scale, 0 is no effect, 100 is complete control, read-out: Kochia plant response rating
Summary of the method: as §1

[12] = tested on: pigweed (Amaranthus retroflexus); assay: Test A postemergence; conditions: Amaranthus retroflexus, post-emergence, 240 h, postemergence; for pest or weed control at 125 g/ha: 125 g ai/ha, visual injury vs untreated controls after approx. 10 d, 0 = no effect, 100 = complete control, read-out: Pigweed plant response rating (0 to 100 scale); for pest or weed control at 500 g/ha: 500 g ai/ha, 0 to 100 scale, 0 is no effect, 100 is complete control, read-out: Pigweed plant response rating
Summary of the method: as §1

[13] = tested on: Galium (catchweed bedstraw, Galium aparine); assay: Test A postemergence; conditions: Galium, post-emergence, 240 h, postemergence; for pest or weed control at 125 g/ha: 125 g ai/ha, visual injury vs untreated controls after approx. 10 d, 0 = no effect, 100 = complete control, read-out: Galium plant response rating (0 to 100 scale); for pest or weed control at 500 g/ha: 500 g ai/ha, 0 to 100 scale, 0 is no effect, 100 is complete control, read-out: Galium plant response rating
Summary of the method: as §1

[14] = tested on: giant foxtail (Setaria faberii); assay: Test A postemergence; conditions: Setaria faberi, post-emergence, 240 h, postemergence; for pest or weed control at 125 g/ha: 125 g ai/ha, visual injury vs untreated controls after approx. 10 d, 0 = no effect, 100 = complete control, read-out: Foxtail, Giant plant response rating (0 to 100 scale); for pest or weed control at 500 g/ha: 500 g ai/ha, 0 to 100 scale, 0 is no effect, 100 is complete control, read-out: Foxtail, Giant plant response rating
Summary of the method: as §1

Row | SMILES | pest or weed control at 125 g/ha [1] [%] | pest or weed control at 500 g/ha [1] [%] | pest or weed control at 125 g/ha [2] [%] | pest or weed control at 500 g/ha [2] [%] | pest or weed control at 125 g/ha [3] [%] | pest or weed control at 500 g/ha [3] [%] | pest or weed control at 125 g/ha (Kochia (Kochia scoparia) [4]) [%] | pest or weed control at 500 g/ha (Kochia (Kochia scoparia) [4]) [%] | pest or weed control at 125 g/ha [5] [%] | pest or weed control at 500 g/ha [5] [%] | pest or weed control at 125 g/ha [6] [%] | pest or weed control at 500 g/ha [6] [%] | plant injury at 125 g/ha [7] [%] | plant injury at 500 g/ha [7] [%] | pest or weed control at 125 g/ha [8] [%] | pest or weed control at 500 g/ha [8] [%] | plant injury at 125 g/ha (corn (Zea mays)) [%] | plant injury at 500 g/ha (corn (Zea mays)) [%] | pest or weed control at 125 g/ha [9] [%] | pest or weed control at 500 g/ha [9] [%] | other results
1 | O=C1NCC[C@H](c2cccc(Cl)c2)[C@H]1C(=O)Nc1ccccc1F [Compound 1159] | 0 | 0 | 0 | 0 | 60 | 90 | 0 | 30 | 0 | 0 | 70 | 90 | 0 | 0 | 0 | 0 | 0 | 20 | 0 | 0 | pest or weed control at 125 g/ha [10]: 90%; pest or weed control at 500 g/ha [10]: 90%; pest or weed control at 125 g/ha (Kochia (Kochia scoparia) [11]): 0%; pest or weed control at 500 g/ha (Kochia (Kochia scoparia) [11]): 0%; pest or weed control at 125 g/ha [12]: 0%; pest or weed control at 500 g/ha [12]: 20%; pest or weed control at 125 g/ha [13]: 20%; pest or weed control at 500 g/ha [13]: 20%; pest or weed control at 125 g/ha [14]: 40%; pest or weed control at 500 g/ha [14]: 70%
2 | CCc1ccc([C@H]2CNC(=O)[C@@H]2C(=O)Nc2cccc(F)c2C)cc1 [Compound 1177] | 30 | 70 | 0 | 30 | 70 | 100 | 30 | 30 | 0 | 20 | 70 | 100 | 20 | 30 | 40 | 40 | 20 | 40 | 60 | 70 | pest or weed control at 125 g/ha [10]: 70%; pest or weed control at 500 g/ha [10]: 90%; pest or weed control at 125 g/ha (Kochia (Kochia scoparia) [11]): 0%; pest or weed control at 500 g/ha (Kochia (Kochia scoparia) [11]): 0%; pest or weed control at 125 g/ha [12]: 0%; pest or weed control at 500 g/ha [12]: 0%; pest or weed control at 125 g/ha [13]: 20%; pest or weed control at 500 g/ha [13]: 50%; pest or weed control at 125 g/ha [14]: 50%; pest or weed control at 500 g/ha [14]: 70%
3 | CCc1ccc([C@H]2CNC(=O)[C@@H]2C(=O)Nc2ccccc2SC)cc1 [Compound 1178] | 0 | 20 | 0 | 50 | 20 | 50 | 40 | 70 | 20 | 50 | 20 | 70 | 0 | 0 | 0 | 0 | 0 | 0 | 0 | 20 | pest or weed control at 125 g/ha [10]: 0%; pest or weed control at 500 g/ha [10]: 30%; pest or weed control at 125 g/ha (Kochia (Kochia scoparia) [11]): 20%; pest or weed control at 500 g/ha (Kochia (Kochia scoparia) [11]): 40%; pest or weed control at 125 g/ha [12]: 0%; pest or weed control at 500 g/ha [12]: 0%; pest or weed control at 125 g/ha [13]: 30%; pest or weed control at 500 g/ha [13]: 30%; pest or weed control at 125 g/ha [14]: 0%; pest or weed control at 500 g/ha [14]: 30%
4 | O=C1NC[C@H](c2nccs2)[C@H]1C(=O)Nc1cccc(F)c1F [Compound 1182] | 0 | 0 | 0 | 0 | 0 | 0 | 0 | 0 | 0 | 0 | 0 | 0 | 0 | 0 | 0 | 0 | 0 | 0 | 0 | 0 | pest or weed control at 125 g/ha [10]: 0%; pest or weed control at 500 g/ha [10]: 0%; pest or weed control at 125 g/ha (Kochia (Kochia scoparia) [11]): 0%; pest or weed control at 500 g/ha (Kochia (Kochia scoparia) [11]): 0%; pest or weed control at 125 g/ha [12]: 0%; pest or weed control at 500 g/ha [12]: 0%; pest or weed control at 125 g/ha [13]: 0%; pest or weed control at 500 g/ha [13]: 0%; pest or weed control at 125 g/ha [14]: 0%; pest or weed control at 500 g/ha [14]: 0%
